From ChEMBL document CHEMBL1154624, “Novel class of LIM-kinase 2 inhibitors for the treatment of ocular hypertension and associated glaucoma” (J Med Chem, 2009) come the findings set out here.

Structures are written as SMILES.

One experiment concerns the target LIM domain kinase 2 (Homo sapiens, UniProt P53671). The experiment in a line: Inhibition of human recombinant LIMK2 expressed in baculovirus-Sf9 system by scintillation counting. In kind it is cell-based.
The subject of another experiment is PTM. To be noted: Sus scrofa, at 10 nM.
Experiment [1] can be described thus: Increase in outflow facility in pig eye at 10 nM by eye-perfusion assay. In kind it is functional, Sus scrofa.
The target in another experiment is LIM domain kinase 1 (Homo sapiens, UniProt P53667). The experiment is described as follows: Inhibition of LIMK1.
The target of experiment [2] is Rho-associated protein kinase 1 (Homo sapiens, UniProt Q13464). The experiment is described as follows: Inhibition of human ROCK1 expressed in baculovirus system.
Experiment [3] deals with Rho-associated protein kinase 2 (Homo sapiens, UniProt O75116). The experiment is described as follows: Inhibition of human ROCK2.
The species entered for experiment [4] is Homo sapiens. The experiment in a line: Selectivity ratio of IC50 for human LIMK2 to IC50 for human ROCK1.
The species entered for experiment [5] is Homo sapiens. The experiment is described as follows: Selectivity ratio of IC50 for human LIMK2 to IC50 for human ROCK2.
The subject of experiment [6] is Mus musculus. The experiment is described as follows: Inhibition of dexamethasone-induced ocular hypertension in C57BL/6J Tyr c-Brd x 129S5/SvEvBrD hybrid mouse assessed as reduction of intraocular pressure at 3 ug after 2 hrs administered as cosolvent/HPMC based formulation. Type of experiment: functional, Eye.
For experiment [7], the system named is Mus musculus. The experiment in a line: Inhibition of dexamethasone-induced ocular hypertension in C57BL/6J Tyr c-Brd x 129S5/SvEvBrD hybrid mouse assessed as reduction of intraocular pressure at 5 ug after 1 hr administered as xanthan gum formulation. In kind it is functional, Eye.
Experiment [8] is described as follows: Increase in outflow facility in pig eye at 100 nM by eye-perfusion assay. In kind it is functional, Sus scrofa.
Experiment [9] deals with Mus musculus. The experiment in a line: Inhibition of dexamethasone-induced ocular hypertension in C57BL/6J Tyr c-Brd x 129S5/SvEvBrD hybrid mouse assessed as reduction of intraocular pressure after 2 hrs administered as cosolvent/HPMC based formulation. Type of experiment: functional, organism-based. The settings on record: Eye.

Rho-associated protein kinase 2, sequence (O75116 whole entry): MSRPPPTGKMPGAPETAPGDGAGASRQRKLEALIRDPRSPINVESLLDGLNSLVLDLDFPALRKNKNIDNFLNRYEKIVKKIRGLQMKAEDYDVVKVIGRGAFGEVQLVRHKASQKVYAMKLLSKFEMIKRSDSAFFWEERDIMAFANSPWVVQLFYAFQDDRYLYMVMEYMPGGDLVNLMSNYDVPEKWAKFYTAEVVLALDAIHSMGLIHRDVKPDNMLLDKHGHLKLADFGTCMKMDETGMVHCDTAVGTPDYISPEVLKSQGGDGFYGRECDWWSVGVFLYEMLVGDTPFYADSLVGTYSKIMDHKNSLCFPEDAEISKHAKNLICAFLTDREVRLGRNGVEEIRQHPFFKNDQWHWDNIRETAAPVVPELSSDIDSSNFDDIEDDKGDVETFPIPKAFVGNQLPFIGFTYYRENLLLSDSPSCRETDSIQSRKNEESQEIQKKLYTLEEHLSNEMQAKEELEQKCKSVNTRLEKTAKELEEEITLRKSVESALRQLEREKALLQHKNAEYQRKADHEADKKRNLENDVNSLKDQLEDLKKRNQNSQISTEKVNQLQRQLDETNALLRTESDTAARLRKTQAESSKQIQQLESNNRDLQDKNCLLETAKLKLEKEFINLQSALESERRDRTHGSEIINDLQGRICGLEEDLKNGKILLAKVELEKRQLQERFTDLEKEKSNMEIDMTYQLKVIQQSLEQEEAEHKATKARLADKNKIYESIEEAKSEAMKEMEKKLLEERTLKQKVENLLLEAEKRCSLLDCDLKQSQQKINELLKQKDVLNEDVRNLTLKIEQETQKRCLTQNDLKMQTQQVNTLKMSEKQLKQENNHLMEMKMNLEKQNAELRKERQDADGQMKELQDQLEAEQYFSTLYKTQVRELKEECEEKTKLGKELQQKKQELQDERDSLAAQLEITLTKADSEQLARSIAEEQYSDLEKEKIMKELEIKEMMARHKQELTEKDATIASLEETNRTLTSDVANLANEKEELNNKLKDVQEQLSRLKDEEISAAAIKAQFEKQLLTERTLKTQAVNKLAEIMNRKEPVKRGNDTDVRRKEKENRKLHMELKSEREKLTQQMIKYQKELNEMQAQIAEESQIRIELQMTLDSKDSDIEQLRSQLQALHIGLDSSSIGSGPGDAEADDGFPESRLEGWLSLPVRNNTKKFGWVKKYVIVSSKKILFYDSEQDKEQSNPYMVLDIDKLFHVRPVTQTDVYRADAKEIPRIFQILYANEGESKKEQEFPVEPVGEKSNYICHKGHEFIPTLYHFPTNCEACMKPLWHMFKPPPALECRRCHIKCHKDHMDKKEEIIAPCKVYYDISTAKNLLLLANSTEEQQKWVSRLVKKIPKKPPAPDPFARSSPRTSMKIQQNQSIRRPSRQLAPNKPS
LIM domain kinase 1, sequence (P53667 whole entry, the tested form may be a part): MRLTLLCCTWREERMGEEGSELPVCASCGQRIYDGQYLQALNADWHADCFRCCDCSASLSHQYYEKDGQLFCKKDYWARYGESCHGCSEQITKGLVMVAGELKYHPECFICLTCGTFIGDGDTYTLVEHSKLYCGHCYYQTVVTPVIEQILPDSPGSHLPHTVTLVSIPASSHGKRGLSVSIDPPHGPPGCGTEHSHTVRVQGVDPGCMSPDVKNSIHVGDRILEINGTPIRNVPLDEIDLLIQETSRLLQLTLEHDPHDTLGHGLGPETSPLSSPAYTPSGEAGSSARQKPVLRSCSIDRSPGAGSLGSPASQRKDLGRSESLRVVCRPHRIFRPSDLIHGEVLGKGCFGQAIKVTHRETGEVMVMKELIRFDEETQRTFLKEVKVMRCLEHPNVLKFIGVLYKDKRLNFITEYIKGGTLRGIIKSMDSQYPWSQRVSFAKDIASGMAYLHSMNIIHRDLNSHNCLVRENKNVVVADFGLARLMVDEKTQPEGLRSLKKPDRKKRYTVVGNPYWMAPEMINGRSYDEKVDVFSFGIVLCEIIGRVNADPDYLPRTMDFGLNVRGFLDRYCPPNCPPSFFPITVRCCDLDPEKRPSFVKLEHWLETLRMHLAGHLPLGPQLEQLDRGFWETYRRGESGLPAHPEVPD
Rho-associated protein kinase 1, sequence (Q13464 whole entry): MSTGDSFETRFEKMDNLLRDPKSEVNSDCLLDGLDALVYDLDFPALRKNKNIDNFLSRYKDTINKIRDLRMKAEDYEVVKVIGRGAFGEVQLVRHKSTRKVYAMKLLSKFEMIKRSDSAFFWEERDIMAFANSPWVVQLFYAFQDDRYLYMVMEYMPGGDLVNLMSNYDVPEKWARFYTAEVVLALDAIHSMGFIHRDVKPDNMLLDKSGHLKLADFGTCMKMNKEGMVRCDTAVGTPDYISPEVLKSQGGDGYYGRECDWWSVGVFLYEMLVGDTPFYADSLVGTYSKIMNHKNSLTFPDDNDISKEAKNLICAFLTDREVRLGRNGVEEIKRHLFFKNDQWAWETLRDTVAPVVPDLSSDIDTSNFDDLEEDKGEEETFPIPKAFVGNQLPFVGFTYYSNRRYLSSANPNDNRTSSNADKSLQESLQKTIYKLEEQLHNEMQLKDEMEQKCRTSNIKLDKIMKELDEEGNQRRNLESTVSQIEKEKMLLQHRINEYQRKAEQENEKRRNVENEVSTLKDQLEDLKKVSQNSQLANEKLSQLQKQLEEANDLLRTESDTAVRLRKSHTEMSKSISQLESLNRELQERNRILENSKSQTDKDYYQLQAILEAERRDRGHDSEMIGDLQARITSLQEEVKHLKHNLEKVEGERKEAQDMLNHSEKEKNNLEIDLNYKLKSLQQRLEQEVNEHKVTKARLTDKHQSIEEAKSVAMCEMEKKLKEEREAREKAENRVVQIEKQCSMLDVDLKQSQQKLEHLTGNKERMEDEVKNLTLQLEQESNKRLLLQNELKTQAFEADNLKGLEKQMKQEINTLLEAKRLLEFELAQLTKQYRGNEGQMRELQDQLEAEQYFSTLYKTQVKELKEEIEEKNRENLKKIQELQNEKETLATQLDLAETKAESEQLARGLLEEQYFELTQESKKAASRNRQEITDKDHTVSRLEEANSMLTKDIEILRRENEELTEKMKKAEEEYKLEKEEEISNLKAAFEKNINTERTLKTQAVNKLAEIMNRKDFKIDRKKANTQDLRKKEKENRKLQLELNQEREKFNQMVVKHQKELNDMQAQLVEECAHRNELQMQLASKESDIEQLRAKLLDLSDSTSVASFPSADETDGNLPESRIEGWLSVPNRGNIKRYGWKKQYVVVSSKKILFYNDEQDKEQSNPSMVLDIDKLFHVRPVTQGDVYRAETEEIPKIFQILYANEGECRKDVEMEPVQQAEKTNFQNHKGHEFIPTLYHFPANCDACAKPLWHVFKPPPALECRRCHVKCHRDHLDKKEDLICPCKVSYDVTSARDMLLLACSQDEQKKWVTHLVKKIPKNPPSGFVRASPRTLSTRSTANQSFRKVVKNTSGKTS
LIM domain kinase 2, sequence (P53671 whole entry, the tested form may be a part): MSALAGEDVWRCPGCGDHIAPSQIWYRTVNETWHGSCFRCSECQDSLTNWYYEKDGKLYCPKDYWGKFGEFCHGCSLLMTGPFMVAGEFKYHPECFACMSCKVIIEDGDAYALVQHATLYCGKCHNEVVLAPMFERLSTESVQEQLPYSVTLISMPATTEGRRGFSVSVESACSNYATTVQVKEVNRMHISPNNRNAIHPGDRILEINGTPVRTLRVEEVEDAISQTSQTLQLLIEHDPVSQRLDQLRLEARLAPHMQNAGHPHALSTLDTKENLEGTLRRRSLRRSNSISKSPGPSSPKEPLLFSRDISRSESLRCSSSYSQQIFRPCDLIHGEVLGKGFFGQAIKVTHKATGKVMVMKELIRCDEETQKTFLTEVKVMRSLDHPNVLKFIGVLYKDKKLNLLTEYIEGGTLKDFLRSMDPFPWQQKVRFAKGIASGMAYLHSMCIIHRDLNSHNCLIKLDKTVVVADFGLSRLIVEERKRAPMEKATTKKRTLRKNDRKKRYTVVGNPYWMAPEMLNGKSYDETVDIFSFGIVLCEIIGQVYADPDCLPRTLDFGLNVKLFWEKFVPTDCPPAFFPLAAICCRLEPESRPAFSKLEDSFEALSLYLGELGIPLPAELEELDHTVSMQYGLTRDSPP
Description for PTM: Inhibition of LIMK2 in pig PTM cells assessed as inhibition of cofilin-phosphorylation at 10 nM by Western blot

As usually defined, the IC50 is the concentration at which inhibition is half-maximal. With `Cc1c[nH]c2ncnc(N3CCN(/C(=N/C#N)Nc4cccc(Br)c4)CC3)c12`, on LIM domain kinase 2, the IC50 is 11 nM.

In the case of `Cc1c[nH]c2ncnc(N3C[C@H](C)N(C(=Nc4cccc(Br)c4)NC#N)C[C@H]3C)c12`, the IC50 at LIM domain kinase 2 was 3.9 nM.

By inhibition is commonly meant the relative decrease from the control value, in per cent. Lower therefore signals a response near the control. On to `Cc1c[nH]c2ncnc(N3CCN(/C(=N/C#N)Nc4cccc(C(C)(C)C)c4)[C@@H](C)C3)c12`, for which, in the experiment with PTM, the inhibition turned out to be 10%.

Take `Cc1c[nH]c2ncnc(N3CCN(/C(=N/C#N)Nc4cccc(C(=O)NCCN(C)C)c4)[C@@H](C)C3)c12`: the 50% inhibitory concentration (IC50) at LIM domain kinase 2 was 3.4 nM. In the experiment on PTM, this compound showed an inhibition of 0%.

Turning to `Cc1cccc(NC(=O)C2CCN(c3ncnc4[nH]cc(C)c34)CC2)c1`, at LIM domain kinase 2, the IC50 is 650 nM.

Turning to `Cc1c[nH]c2ncnc(N3CCN(/C(=N/S(C)(=O)=O)Nc4cccc(Br)c4)[C@@H](C)C3)c12`, the concentration for half-maximal inhibition (IC50) at LIM domain kinase 2 came out at 6.8 nM. Further, the inhibition in the experiment with PTM was found to be 48%.

Take `Cc1c[nH]c2ncnc(N3CCN(C(=O)Nc4cccc(C(=O)NC(CO)CO)c4)[C@@H](C)C3)c12`: the IC50 on LIM domain kinase 2 was 3 nM. In the experiment on PTM, this compound registered an inhibition of 27%.

Turning to `Cc1c[nH]c2ncnc(N3CCN(C(=Nc4cccc(S(=O)(=O)NCCO)c4)NC#N)[C@@H](C)C3)c12`, the IC50 on LIM domain kinase 2 is 2.9 nM.

For the compound `Cc1c[nH]c2ncnc(N3CCC(C(=O)Nc4cccc(Br)c4)CC3)c12`, on LIM domain kinase 2, the IC50 was 300 nM.

Take `Cc1c[nH]c2ncnc(N3CCN(/C(=N/C#N)Nc4cccc(C(F)(F)F)c4)[C@@H](C)C3)c12`: the IC50 at LIM domain kinase 2 came to 1.9 nM. Also, the inhibition in the experiment with PTM amounted to 12%.

With `Cc1c[nH]c2ncnc(N3CC4CC3CN4C(=Nc3cccc(Br)c3)NC#N)c12` (stereo not given), the 50% inhibitory concentration (IC50) on LIM domain kinase 2 came to 76 nM.

Take `Cc1c[nH]c2ncnc(N3CCN(C(=O)Nc4cccc(C(=O)NCCO)c4)[C@@H](C)C3)c12`: the IC50 at LIM domain kinase 2 stood at 3 nM. In the experiment with PTM, this compound displayed an inhibition of 0%.

Take `Cc1c[nH]c2ncnc(N3CCN(C(=O)Nc4cccc(Br)c4)[C@@H](C)C3)c12`: the half-maximal inhibitory concentration (IC50) on LIM domain kinase 2 came out at 3.9 nM.

With `C[C@@H](N)c1ccc(C(=O)Nc2ccnc3[nH]ccc23)cc1` [Y-39983], the Activity in [1] came to 28%.

For the compound `COc1cccc(NC(=O)C2CCN(c3ncnc4[nH]cc(C)c34)CC2)c1`, at LIM domain kinase 2, the IC50 was found to be 520 nM.

`Cc1c[nH]c2ncnc(N3CCC(C(=O)Nc4ccccc4)CC3)c12`: the IC50 on LIM domain kinase 2 came out at 800 nM.

Turning to `Cc1ccc(NC(=O)C2CCN(c3ncnc4[nH]cc(C)c34)CC2)cc1`, the IC50 at LIM domain kinase 2 came out at 1300 nM.

Take `Cc1c[nH]c2ncnc(N3CCN(C(=Nc4cccc(C(=O)NCCO)c4)NC#N)[C@@H](C)C3)c12`: the concentration for half-maximal inhibition (IC50) at LIM domain kinase 2 amounted to 0.8 nM.

As for `Cc1c[nH]c2ncnc(N3CCN(/C(=N\C#N)Nc4cccc(Br)c4)[C@@H](C)C3)c12`, the IC50 on LIM domain kinase 2 turned out to be 0.9 nM; against LIM domain kinase 1, 0.5 nM; in [2], 260 nM; in experiment [3] it was 2700 nM.

For the compound `Cc1c[nH]c2ncnc(N3CCN(C(=O)Nc4cccc(Br)c4)CC3)c12`, on LIM domain kinase 2, the IC50 was 38 nM.

`Cc1c[nH]c2ncnc(N3CCN(/C(=N/C#N)Nc4cccc(C#N)c4)[C@@H](C)C3)c12`: the half-inhibitory concentration (IC50) at LIM domain kinase 2 came to 1.2 nM. For the same compound, the inhibition in the experiment with PTM came out at 18%.

Consider `Cc1ccccc1NC(=O)C1CCN(c2ncnc3[nH]cc(C)c23)CC1`, for which, at LIM domain kinase 2, the IC50 came to 11500 nM.

With `Cc1cccc(NC(=O)N2CCN(c3ncnc4[nH]cc(C)c34)CC2)c1`, the IC50 on LIM domain kinase 2 was 92 nM.

`Cc1c[nH]c2ncnc(N3CCN(/C(=N/C#N)Nc4cccc(C(=O)NCCO)c4)[C@@H](C)C3)c12`: in the experiment with PTM, the inhibition came to 9%.

Take `Cc1c[nH]c2ncnc(N3CCN(/C(=N/C#N)Nc4cccc(Br)c4)[C@@H](C(C)C)C3)c12`: the IC50 on LIM domain kinase 2 worked out at 4.2 nM.

As for `Cc1c[nH]c2ncnc(N3CCN(/C(=N/C#N)Nc4cccc(S(=O)(=O)NCCO)c4)[C@@H](C)C3)c12`, the inhibition in the experiment on PTM was 22%.

Turning to `Cc1c[nH]c2ncnc(N3CCN(/C(=N/C#N)Nc4cccc(Cl)c4)[C@@H](C)C3)c12`, on LIM domain kinase 2, the IC50 was found to be 1.6 nM. Besides, the inhibition with PTM worked out at 49%.

For the compound `Cc1c[nH]c2ncnc(N3CCN(/C(=N/C#N)Nc4cccc(C(=O)NC(C)C)c4)[C@@H](C)C3)c12`, in the experiment with PTM, the inhibition amounted to 0%.

Consider `C[C@H]1CN(c2nc(Cl)nc3[nH]ccc23)CCN1C(=Nc1cccc(Br)c1)NC#N`, for which, at LIM domain kinase 2, the 50% inhibitory concentration (IC50) is greater than 1000 nM.

Regarding `Cc1c[nH]c2ncnc(N3CCN(/C(=N/C#N)Nc4ccc(F)c(Br)c4)[C@@H](C)C3)c12`, the IC50 at LIM domain kinase 2 is 1.5 nM; on LIM domain kinase 1 it was 3.7 nM; in experiment [2], 310 nM; in experiment [3] it was 2200 nM. For the same compound, the Ratio IC50 in the experiment filed under Homo sapiens [4] was greater than 100; in the experiment listed under Homo sapiens [5], greater than 900. This compound also came in with an inhibition with PTM of 63%.

Take `C[C@H]1CN(c2ncnc3[nH]cc(Cl)c23)CCN1/C(=N/C#N)Nc1cccc(Br)c1`: the IC50 at LIM domain kinase 2 worked out at 1.2 nM.

In the case of `Cc1c[nH]c2ncnc(N3CCC(C(=O)Nc4cccc(Oc5ccccc5)c4)CC3)c12`, the half-maximal inhibitory concentration (IC50) at LIM domain kinase 2 amounted to 64 nM.

As to `COc1ccc(NC(=O)C2CCN(c3ncnc4[nH]cc(C)c34)CC2)cc1`, the IC50 on LIM domain kinase 2 stood at 1500 nM.

`Cc1c[nH]c2ncnc(N3C[C@@H](C)N(C(=O)Nc4cccc(Br)c4)[C@@H](C)C3)c12`: on LIM domain kinase 2, the 50% inhibitory concentration (IC50) was 133 nM.

Take `Cc1c[nH]c2ncnc(N3CCN(/C(=N/C#N)Nc4cccc(S(=O)(=O)NC(C)C)c4)[C@@H](C)C3)c12`: the half-inhibitory concentration (IC50) at LIM domain kinase 2 stood at 1.7 nM. The inhibition in the experiment on PTM is 0%.

Turning to `CC(C)(C)NC[C@H](O)COc1nsnc1N1CCOCC1` [TIMOLOL], in the experiment on Mus musculus [6], the Activity is -5.2 mmHg.

On to `Cc1c[nH]c2ncnc(N3CCN(C(=O)Nc4cccc(C(=O)NC(C)C)c4)[C@@H](C)C3)c12`, for which the IC50 at LIM domain kinase 2 was found to be 5.5 nM. In addition, in the experiment with PTM, the inhibition was 0%.

Turning to `Cc1c[nH]c2ncnc(N3CCN(C(=O)Nc4cccc(Cl)c4)[C@@H](C)C3)c12`, the IC50 at LIM domain kinase 2 came out at 2.3 nM. Further, the inhibition with PTM was found to be 0%.

`Cc1c[nH]c2ncnc(N3CCN(C(=Nc4cccc(C(=O)NC(C)C)c4)NC#N)[C@@H](C)C3)c12`: on LIM domain kinase 2, the 50% inhibitory concentration (IC50) worked out at 3.5 nM.

As for `Cc1c[nH]c2ncnc(N3CCN(C(=O)Nc4cccc(Br)c4)[C@H](C)C3)c12`, the IC50 at LIM domain kinase 2 turned out to be 37 nM.

With `COc1cccc(NC(=O)N2CCN(c3ncnc4[nH]cc(C)c34)CC2)c1`, on LIM domain kinase 2, the half-inhibitory concentration (IC50) is 140 nM.

With `Cc1c[nH]c2ncnc(N3CCN(C(=O)Nc4ccc(F)c(Br)c4)[C@@H](C)C3)c12`, the IC50 at LIM domain kinase 2 was found to be 3.2 nM; against LIM domain kinase 1, 6.6 nM; in [2] it was 51 nM; in [3], 280 nM. Besides, the Ratio IC50 came out at 16 in the experiment filed under Homo sapiens [4] and 88 in the experiment listed under Homo sapiens [5]. Moreover, the Activity in the experiment on Mus musculus [7] was determined as 3.6 mmHg. Also, in the experiment with PTM, the inhibition was 51%.

Turning to `Cc1c[nH]c2ncnc(N3CCN(/C(=N/C#N)Nc4cccc(Br)c4)[C@@H](C)C3)c12`, the Ratio IC50 in the experiment listed under Homo sapiens [4] was greater than 100; in the experiment listed under Homo sapiens [5], greater than 900. Further, the Activity in the experiment on Mus musculus [7] was 3.7 mmHg; in experiment [8] it was 30%. This compound also gave an inhibition with PTM of 50%.

With `CC1CN(c2ncnc3[nH]ccc23)CCN1/C(=N/C#N)Nc1cccc(Br)c1` (racemic), the IC50 at LIM domain kinase 2 was 8.1 nM.

In the case of `Cc1c[nH]c2ncnc(N3CCN(C(=Nc4cccc(C(C)(C)C)c4)NC#N)[C@@H](C)C3)c12`, the 50% inhibitory concentration (IC50) on LIM domain kinase 2 amounted to 1.1 nM.

Take `Cc1c[nH]c2ncnc(N3CC4CCC(C3)N4C(=O)Nc3cccc(Br)c3)c12`: at LIM domain kinase 2, the IC50 was determined as 16 nM.

For `Cc1c[nH]c2ncnc(N3CCN(/C(=N/C#N)Nc4cccc(F)c4)[C@@H](C)C3)c12`, at LIM domain kinase 2, the concentration for half-maximal inhibition (IC50) came out at 1.8 nM. Besides, the inhibition with PTM turned out to be 39%.

For the compound `Cc1c[nH]c2ncnc(N3CCN(C(=O)Nc4cccc(OC(=O)N(C)C)c4)[C@@H](C)C3)c12`, the IC50 on LIM domain kinase 2 turned out to be 1.2 nM; at LIM domain kinase 1 it was 3.2 nM; in experiment [2] it was 490 nM; in experiment [3] it was 1100 nM. The Ratio IC50 in the experiment listed under Homo sapiens [4] is greater than 100; in the experiment listed under Homo sapiens [5], greater than 900. The Activity in the experiment with Mus musculus [7] was 3.6 mmHg; in the experiment on Mus musculus [9], “Dose-dependent effect”; in the experiment on Mus musculus [6], -3.2 mmHg; in [8], 30%. Also, in the experiment with PTM, the inhibition came to 61%.

For the compound `Cc1cc2c(N3CCN(/C(=N/C#N)Nc4cccc(Br)c4)[C@@H](C)C3)ncnc2[nH]1`, the half-inhibitory concentration (IC50) on LIM domain kinase 2 amounted to 4.2 nM.
